In this test the test system is Cholesterinesterase. Description: Cholesterol esterase activity: rate of ester cleavage, continuous-flow apparatus with photometric cholesterol indicator reaction (546 nm). In kind it is biochemical. The method, then: Zum Nachweis der aktivierenden Wirkung der zu untersuchenden synergistischen Kombinationen der Erfindung auf Cholesterinesterase wurde die in Fig. 1 dargestellte Apparatur verwendet.
Aus einem temperierbaren Reaktionsgefäß 1 (25°C), in dem sich die Esterspaltung vollzieht, werden über eine Schlauchpumpe 2 durch einen Förderschlauch 3 definierten Querschnitts kontinuierlich o,32 ml Gemisch/Minute entnommen. über die gleiche Pumpe wird durch einen zweiten Schlauch 4 aus einem Vorratsgefäß 5 ebenfalls kontinuierlich 1,o ml Indikatorlösung/Minute gefördert, hinter der Pumpe 2 mit einem Luftstrom 6 von konstant o,6 ml Luft/ Minute zusammengeführt und damit segmentiert und dann mit dem zuvor beschriebenen Reaktionsgemischstrom vereinigt. Der Gesamtstrom passiert daraufhin zwei Glasschlangen 7, wodurch eine Durchmischung der Flüssigkeiten und die notwendige Reaktionszeit für die Indikatorreaktion bis zum Endpunkt gewährleistet wird. Durch Abziehen eines Stroms von 1,2 ml/Minute unmittelbar vor der Küvette durch Schlauchleitung 8 senkrecht nach oben werden die Luftblasen wieder entfernt. Der nicht segmentierte Reststrom wird zur photometrischen Messung (bei 546 nm) in eine Durchflußküvette (1 cm Schichtdicke) geleitet und die Meßwerte werden vom Schreiber 1o registriert.
Wegen der gleichbleibenden Bedingungen bezüglich der Indikatorreaktion sind Änderungen in Höhe und Verlauf des Meßsignals allein von den Vorgängen im Reaktionsgefäß abhängig. Findet dort eine Esterspaltung statt, so bewirkt deren kinetischer Verlauf eine Zunahme des Meßsignals, welches als positive Steigung mit dem Schreiber 1o registriert wird. Die Steilheit des Anstiegs ist ein Maß für die Reaktionsgeschwindigkeit und damit für die Cholesterinesteraseaktivität im Reaktionsansatz.
Wegen des getrennten Ablaufs von Esterspaltung und Indikatorreaktion ist eine gegenseitige Beeinflussung ausgeschlossen. Natürlich wären auch andere Indikatorsysteme einschließlich der Sauerstoffelektrode verwendbar.
Die Indikatorlösung setzt zunächst freies Cholesterin zu Cholestenon und H202 um. Das entstandene H202 wird mit Phenol und 4-Aminoantipyrin zu einem roten Farbstoff umgesetzt, dessen Absorption photometrisch gemessen wird. Die Menge des entstehenden Farbstoffs ist der Konzentration des freien Cholesterins proportional. Die Konzentration an freiem Cholesterin setzt sich aus dem bereits im Substrat vorhandenen Anteil an freiem Cholesterin sowie aus dem durch die Esterase freigesetzten Cholesterin zusammen.
Start mit 50 µl einer Esterase-Stocklösung, woraufhin o,oo3 U/ml Esterase im Ansatz vorliegen. Bei Aktivitätsabstufungen wurde diese Menge variiert.
Nach erfolgtem Start und Durchmischung wird bei laufender Pumpe 2 der Förderschlauch 3 in die Lösung im Reaktionsgefäß 1 für etwa 1o Minuten eingetaucht. Anschließend wird zur besseren Trennung der Signale in jeweils etwa 1o Segmenten wechselweise Luft und bidest. Wasser angesaugt. Daraufhin kann die nächste Bestimmung erfolgen.

`CC(C)CC(C)O` (stereo not shown) [4-Methylpentanol-(2)]: the “Resultierende Geschwindigkeit gegenüber Vergleichswert” value by setting is: (1,4 Vol.-% additive, 15 %o Tergitol NPX, 0,003 U/ml Cholesterinesterase, o,1 M Kaliumphosphatpuffer, pH 7,o with adjuvant vs o,3 M buffer without adjuvant, 25°C) “Der Vergleichswert wird übertroffen”; (1 Vol.-% additive, 0,3 M Kaliumphosphatpuffer, pH 7,o, reduced Genapol OX-1oo/Natriumcaprylat concentration with adjuvant vs detergent concentration optimum without adjuvant, o,oo3 U/ml Cholesterinesterase) “Der Vergleichswert wird erreicht”.
In the case of `Oc1ccccc1` [Phenol], under “4o mM (ca. o,35 Gew.-%) additive, 1o %o Genapol OX-1oo/1o %o Na-Caprylat, o,oo3 U/ml Cholesterinesterase, o,1 M Kaliumphosphatpuffer, pH 7,o with adjuvant vs o,3 M buffer without adjuvant”, the “Resultierende Geschwindigkeit gegenüber Vergleichswert” value is “Der Vergleichswert wird erreicht”.
Turning to `OC1CCCCC1` [Cyclohexanol], the “Resultierende Geschwindigkeit gegenüber Vergleichswert” value runs as follows: (1 Vol.-% additive, o,3 M Kaliumphosphatpuffer, pH 7,o, reduced Tergitol NPX concentration with adjuvant vs detergent concentration optimum without adjuvant, o,oo3 U/ml Cholesterinesterase) “Der Vergleichswert wird deutlich übertroffen”; (2 Vol.-% additive (example 6.3), 15 %o Tergitol NPX, 0,003 U/ml Cholesterinesterase, o,1 M Kaliumphosphatpuffer, pH 7,o with adjuvant vs o,3 M buffer without adjuvant, 25°C) “Der Vergleichswert wird deutlich übertroffen”; (2 Vol.-% additive, 0,3 M Kaliumphosphatpuffer, pH 7,o, reduced Genapol OX-1oo/Natriumcaprylat concentration with adjuvant vs detergent concentration optimum without adjuvant, o,oo3 U/ml Cholesterinesterase) “Der Vergleichswert wird übertroffen”; (2 Vol.-% additive, 1o %o Genapol OX-1oo/1o %o Na-Caprylat, o,oo3 U/ml Cholesterinesterase, o,1 M Kaliumphosphatpuffer, pH 7,o with adjuvant vs o,3 M buffer without adjuvant) “Der Vergleichswert wird übertroffen”.
For the compound `OCC(Cl)(Cl)Cl` [2,2,2-Trichloräthanol], the “Resultierende Geschwindigkeit gegenüber Vergleichswert” value is given as “Der Vergleichswert wird übertroffen” (1 Vol.-% additive, 1o %o Genapol OX-1oo/1o %o Na-Caprylat, o,oo3 U/ml Cholesterinesterase, o,1 M Kaliumphosphatpuffer, pH 7,o with adjuvant vs o,3 M buffer without adjuvant); “Der Vergleichswert wird übertroffen” (o,1 Vol.-% additive, o,3 M Kaliumphosphatpuffer, pH 7,o, reduced Tergitol NPX concentration with adjuvant vs detergent concentration optimum without adjuvant, o,oo3 U/ml Cholesterinesterase); “Der Vergleichswert wird deutlich übertroffen” (o,3 Vol.-% additive, 0,3 M Kaliumphosphatpuffer, pH 7,o, reduced Genapol OX-1oo/Natriumcaprylat concentration with adjuvant vs detergent concentration optimum without adjuvant, o,oo3 U/ml Cholesterinesterase).

The values are drawn from patent EP0016946A1, “Process and reagent for the activation of cholesterol esterase” (BOEHRINGER MANNHEIM GMBH, priority 1979, dated 1980).
